The term Kd denotes the equilibrium constant for the complex coming apart. Higher therefore signals lower affinity.

The results in this text go back to ChEMBL document CHEMBL3853322, “Thrombospondin-1 Mimetic Agonist Peptides Induce Selective Death in Tumor Cells: Design, Synthesis, and Structure-Activity Relationship Studies” (J Med Chem, 2016).

Series [1] in a line: Aqueous solubility of compound in 50 mM sodium succinate buffer at >1 mM at pH 5 by 1D 1H NMR spectroscopic analysis. The format is physicochemical.
Series [2] is described as follows: Induction of programmed cell death in human MEC1 cells at 200 uM after 2 hrs by Annexin-V/propidium iodide staining based FACS analysis. The format is functional. (A flow cytometer gives signals particle by particle.)
The nature of series [3]: Drug degradation in human serum at 10 mg/ml after 2 hrs by HPLC analysis. The class given is ADME.
Series [4] is described as follows: Induction of programmed cell death in human MEC1 cells at 50 uM after 2 hrs by Annexin-V/propidium iodide staining based FACS analysis. The format is functional.
The test system of series [5] is A549. The experiment in a line: Induction of programmed cell death in human A549 cells after 2 hrs by Annexin-V/propidium iodide staining based FACS analysis. The format is functional.
Series [6] has as its system MCF7. Nature of the series: Induction of programmed cell death in human MCF7 cells after 2 hrs by Annexin-V/propidium iodide staining based FACS analysis. The class given is functional.
For series [7], the system named is HCT-116. Nature of the series: Induction of programmed cell death in human HCT116 cells after 2 hrs by Annexin-V/propidium iodide staining based FACS analysis. The class given is functional.
In series [8] the test system is MCF7. Nature of the series: Induction of apoptosis in human MCF7 cells assessed as late apoptotic cells at 200 uM after 2 hrs by Annexin-V/propidium iodide staining based FACS analysis (reference value: 22%). The class given is functional.
Series [9] in a line: Induction of programmed cell death in human A549 cells at 50 uM after 2 hrs by Annexin-V/propidium iodide staining based FACS analysis. The format is functional.
Series [10] has as its system A549. Nature of the series: Induction of apoptosis in human A549 cells assessed as early apoptotic cells at 200 uM after 2 hrs by Annexin-V/propidium iodide staining based FACS analysis (reference value: 2%). The format is functional.
The nature of series [11]: Induction of programmed cell death in human HCT116 cells at 200 uM after 2 hrs by Annexin-V/propidium iodide staining based FACS analysis. The class given is functional, HCT-116.
Series [12] has as its system HCT-116. The experiment in a line: Induction of apoptosis in human HCT116 cells assessed as early apoptotic cells at 200 uM after 2 hrs by Annexin-V/propidium iodide staining based FACS analysis (reference value: 4%). The class given is functional.
The test system of series [13] is A549. Nature of the series: Induction of apoptosis in human A549 cells assessed as late apoptotic cells at 200 uM after 2 hrs by Annexin-V/propidium iodide staining based FACS analysis (reference value: 5%). The format is functional.
Series [14] has as its system HCT-116. Nature of the series: Induction of apoptosis in human HCT116 cells assessed as late apoptotic cells at 200 uM after 2 hrs by Annexin-V/propidium iodide staining based FACS analysis (reference value: 5%). The class given is functional.
Series [15] has as its system MCF7. The experiment in a line: Induction of apoptosis in human MCF7 cells assessed as early apoptotic cells at 200 uM after 2 hrs by Annexin-V/propidium iodide staining based FACS analysis (reference value: 4%). The class given is functional.
Series [16] is described as follows: Induction of programmed cell death in human HCT116 cells at 50 uM after 2 hrs by Annexin-V/propidium iodide staining based FACS analysis. The class given is functional, HCT-116.
The nature of series [17]: Metabolic stability in human serum at 10 mg/ml at 37 degC after 2 hrs by HPLC analysis. The format is ADME.
Series [18] in a line: Aqueous solubility of compound in 50 mM sodium succinate buffer at 2 mM at pH 5 by 1D 1H NMR spectroscopic analysis. The class given is physicochemical. The settings on record: buffer, pH 5, 2000 µM.
Series [19] is described as follows: Induction of cell death in human MDA-MB-231 cells at 300 uM after 2 hrs by Annexin-V/propidium iodide staining based FACS analysis. The class given is functional.
Series [20] can be described thus: Induction of cell death in human RPMI8866 cells at 300 uM after 2 hrs by Annexin-V/propidium iodide staining based FACS analysis. The format is functional, RPMI-8866.
Series [21] can be described thus: Induction of cell death in human MEC1 cells at 300 uM after 2 hrs by Annexin-V/propidium iodide staining based FACS analysis. The format is functional.
A short description of series [22]: Induction of cell death in human HeLa cells at 300 uM after 2 hrs by Annexin-V/propidium iodide staining based FACS analysis. The class given is functional.
Series [23] has as its system CLL. Nature of the series: Induction of programmed cell death in human CLL cells harboring TP53 17p deletion mutant at 50 to 400 uM after 2 hrs by Annexin-V/propidium iodide staining based FACS analysis. The class given is functional.
Series [24] can be described thus: Induction of cell death in human LNCAP cells at 300 uM after 2 hrs by Annexin-V/propidium iodide staining based FACS analysis. The class given is functional.
Series [25] can be described thus: Induction of cell death in human Ramos cells at 300 uM after 2 hrs by Annexin-V/propidium iodide staining based FACS analysis. The class given is functional.
Series [26] in a line: Induction of cell death in human U937 cells at 300 uM after 2 hrs by Annexin-V/propidium iodide staining based FACS analysis. The format is functional, U-937.
The nature of series [27]: Induction of cell death in human HBL100 cells at 300 uM after 2 hrs by Annexin-V/propidium iodide staining based FACS analysis. The format is functional, HBL-100.
In series [28] the test system is CLL. The experiment in a line: Induction of programmed cell death in human CLL cells at 50 to 400 uM after 2 hrs by Annexin-V/propidium iodide staining based FACS analysis. The class given is functional.
Series [29] is described as follows: Induction of cell death in human OVCAR10 cells at 300 uM after 2 hrs by Annexin-V/propidium iodide staining based FACS analysis. The class given is functional.
The subject of series [30] is CLL. Nature of the series: Induction of programmed cell death in human CLL cells harboring ATM 11q deletion mutant at 50 to 400 uM after 2 hrs by Annexin-V/propidium iodide staining based FACS analysis. The class given is functional.
A short description of series [31]: Induction of cell death in human AU565 cells at 300 uM after 2 hrs by Annexin-V/propidium iodide staining based FACS analysis. The format is functional.
Series [32] is described as follows: Induction of cell death in human A549 cells at 300 uM after 2 hrs by Annexin-V/propidium iodide staining based FACS analysis. The format is functional.
Series [33] is described as follows: Cytotoxicity against human B lymphocytes assessed as cell death at 50 to 400 uM after 2 hrs by Annexin-V/propidium iodide staining based FACS analysis. The format is toxicity.
Series [34] is described as follows: Induction of cell death in human RPMI8226 cells at 300 uM after 2 hrs by Annexin-V/propidium iodide staining based FACS analysis. The format is functional, RPMI-8226.
A short description of series [35]: Induction of cell death in human Raji cells at 300 uM after 2 hrs by Annexin-V/propidium iodide staining based FACS analysis. The class given is functional.
The nature of series [36]: Induction of cell death in human CEM cells at 300 uM after 2 hrs by Annexin-V/propidium iodide staining based FACS analysis. The class given is functional, CCRF-CEM.
Series [37] in a line: Drug degradation in human serum up to 5 mins by HPLC analysis. The format is ADME.
The nature of series [38]: Induction of cell death in human MCF7 cells at 300 uM after 2 hrs by Annexin-V/propidium iodide staining based FACS analysis. The class given is functional.
Series [39] is described as follows: Induction of cell death in human JM1 cells at 300 uM after 2 hrs by Annexin-V/propidium iodide staining based FACS analysis. The format is functional.
Series [40] in a line: Induction of cell death in human Jurkat cells at 300 uM after 2 hrs by Annexin-V/propidium iodide staining based FACS analysis. The class given is functional.
Series [41] has as its target Leukocyte surface antigen CD47 (Homo sapiens, UniProt Q08722). Nature of the series: Binding affinity to CD47 receptor in human biotinylated MEC1 cell membranes by biolayer interferometry.

The source made the active and inactive calls. The rule behind the calls is not given here.

Leukocyte surface antigen CD47, sequence (Q08722 whole entry): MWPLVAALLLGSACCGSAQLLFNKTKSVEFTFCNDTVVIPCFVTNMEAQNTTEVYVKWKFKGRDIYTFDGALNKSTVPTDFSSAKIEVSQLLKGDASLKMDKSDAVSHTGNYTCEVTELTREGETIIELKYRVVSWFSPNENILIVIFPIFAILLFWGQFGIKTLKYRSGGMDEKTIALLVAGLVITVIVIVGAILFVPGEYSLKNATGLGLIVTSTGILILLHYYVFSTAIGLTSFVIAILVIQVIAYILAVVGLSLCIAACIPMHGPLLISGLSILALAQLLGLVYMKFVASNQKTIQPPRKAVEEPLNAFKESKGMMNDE

Consider Ac-KRFYVVMWKK-NH2, for which the solubility entry in series [1] is reported as “Soluble”. This compound returned an Activity in series [2] of 30%. Further, the Stability entry in series [3] is “Unstable”.
`CSCC[C@H](NC(=O)[C@@H](NC(=O)[C@@H](NC(=O)[C@H](Cc1ccc(O)cc1)NC(=O)[C@H](Cc1ccccc1)NC(=O)[C@H](CCCNC(=N)N)NC(=O)[C@H](N)CCCCN)C(C)C)C(C)C)C(=O)N[C@@H](Cc1c[nH]c2ccccc12)C(=O)N[C@@H](CCCCN)C(=O)N[C@H](CCCCN)C(=O)O`: the Activity was 25% in series [4]; “Dose-dependent effect” in [5]; “Dose-dependent effect” in [6]; “Dose-dependent effect” in series [7]; 52% in series [8]; 25% in series [9]. Moreover, the Activity in [10] is 5%; in series [11], 80%; in series [12], 4%; in series [13] it was 60%; in series [2], 63%; in series [14] it was 77%. The Activity in series [15] is 6%; in series [16], 38%. Further, the solubility result in series [1] is “Soluble”. Moreover, the Stability result in series [17] is “Stable”.
The compound `CSCC[C@H](NC(=O)[C@@H](NC(=O)[C@@H](NC(=O)[C@H](Cc1ccc(O)cc1)NC(=O)[C@H](Cc1ccccc1)NC(=O)[C@H](CCCNC(=N)N)NC(C)=O)C(C)C)C(C)C)C(=O)N[C@@H](Cc1c[nH]c2ccccc12)C(=O)N[C@@H](CCCCN)C(N)=O` yielded an Activity in series [2] of 27%. In series [18], the solubility result is given as “Insoluble”. For the same compound, the Stability result in series [17] is on record as “Stable”.
On to `CSCC[C@H](NC(=O)[C@@H](NC(=O)[C@@H](NC(=O)[C@H](Cc1ccc(O)cc1)NC(=O)[C@H](Cc1ccccc1)NC(=O)[C@H](CCCNC(=N)N)NC(=O)[C@@H](N)CCCCN)C(C)C)C(C)C)C(=O)N[C@@H](Cc1c[nH]c2ccccc12)C(=O)N[C@@H](CCCCN)C(=O)N[C@@H](CCCCN)C(=O)O`, for which the Activity in series [19], in series [20], in series [21], in [22], in [24] and in series [25] was 30% throughout. The Activity in [26] came out at 30%; in series [2], 23%; in [27], 30%; in series [29], 30%; in series [31], 30%; in series [32], 30%. Moreover, the Activity result in series [33] is reported as “Non-Toxic”; in series [34] it was 30%; in [35], 30%; in series [36], 30%; in [38], 30%; in [39] it was 30%. Also, in series [40], the Activity was 30%. For the same compound, the solubility entry in series [1] is listed as “Soluble”. The result in series [23], in series [28] and in series [30] was Active. In addition, the Stability result in series [37] is reported as “Unstable”.
Consider `CCCCC(NC(=O)[C@@H](NC(=O)[C@@H](NC(=O)[C@H](Cc1ccc(O)cc1)NC(=O)[C@H](Cc1ccccc1)NC(=O)[C@H](CCCNC(=N)N)NC(=O)[C@H](N)CCCCN)C(C)C)C(C)C)C(=O)N[C@@H](Cc1c[nH]c2ccccc12)C(=O)N[C@@H](CCCCN)C(=O)N[C@H](CCCCN)C(=O)O` (stereo partly drawn), for which binding in series [41] was characterised by a dissociation constant (Kd) of 18 µM. In [2], the Activity is recorded as 47%.
